Patent publication US20020137929A1, “1 - (3-heterocyclylphenyl) isothiourea, -isourea, -guanidine and -amidine herbicidal agents” (Intellectual Property Department, BASF Aktiengesellschaft, priority 1998, published 2002)

Tests used:
[1] = tested on: SAGPY (Arrowhead (Pygmaea)); assay: Preemergence weed control under flooded paddy conditions; assay type: in vivo, Sagittaria pygmaea; conditions: rated 3-4 weeks after treatment
Summary of the method: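 Visual injury scored 0-9 against control three to four weeks post-treatment, greenhouse-grown. Application: acetone/water (50/50) solutions dosed directly into flood water (1.5-3 cm over silt loam, planted top 0.5 cm), roughly 0.0313 to 0.500 kg/ha active ingredient.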

[2] = tested on: TRZAWR (Wheat, Winter, cv Riband); assay: Preemergence herbicidal evaluation; assay type: in vivo, Triticum aestivum; conditions: preemergence, rated 4-5 weeks after treatment, 0-9 scale
Summary of the method: (§1)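 Greenhouse preemergence test: seed-soil mix sown on ~1 inch soil; aqueous acetone spray at equivalent of ~0.0156–0.500 kg/ha; greenhouse-held and watered; scored 0–9 visually at 4–5 weeks.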

[3] = tested on: CYPIR (Rice Flatsedge); assay: Preemergence weed control under flooded paddy conditions; assay type: in vivo, Cyperus iria; conditions: rated 3-4 weeks after treatment
Summary of the method: (§2)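 Silt loam, seeds in top 0.5 cm; flood held 1.5-3 cm; test cpd as acetone/water 50/50 into flood water, ~0.0313-0.500 kg/ha a.i.; greenhouse 3-4 wk; visual 0-9 score vs control.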

[4] = tested on: ECHORC (Watergrass (Calif.)); assay: as above; assay type: in vivo, Echinochloa oryzoides; conditions: rated 3-4 weeks after treatment
Summary of the method: as §2

[5] = tested on: ABUTH (Velvetleaf); assay: Preemergence herbicidal evaluation; assay type: in vivo, Abutilon theophrasti; conditions: preemergence, rated 4-5 weeks after treatment, 0-9 scale
Summary of the method: as §1

[6] = tested on: MOOVA (Monochoria); assay: Postemergence weed control under flooded paddy conditions; assay type: in vivo, Monochoria vaginalis; conditions: postemergence weeds, rated 3 to 4 weeks after treatment
Summary of the method: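 Weeds 3 to 5 cm tall and rice seedlings at the 1.5 to 2.5 leaf stage were flooded, with water held 1.5 to 3 cm above the soil. Compounds in 50/50 v/v aqueous/acetone went into the flood water at about 0.0313 to 0.500 kg/ha. Visual 0-9 ratings versus control were made 3 to 4 weeks later.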

SMILES	SAGPY herbicidal effect rating ([1]; 0.0313 kg/ha)	SAGPY herbicidal effect rating ([1]; 0.0625 kg/ha)	SAGPY herbicidal effect rating ([1]; 0.1250 kg/ha)	SAGPY herbicidal effect rating ([1]; 0.2500 kg/ha)	TRZAWR rating ([2]; 0.0313 kg/ha)	TRZAWR rating ([2]; 0.0625 kg/ha)	TRZAWR rating ([2]; 0.1250 kg/ha)	TRZAWR rating ([2]; 0.2500 kg/ha)	CYPIR herbicidal effect rating ([3]; 0.0313 kg/ha)	CYPIR herbicidal effect rating ([3]; 0.0625 kg/ha)	CYPIR herbicidal effect rating ([3]; 0.1250 kg/ha)	CYPIR herbicidal effect rating ([3]; 0.2500 kg/ha)	ECHORC herbicidal effect rating ([4]; 0.0313 kg/ha)	ECHORC herbicidal effect rating ([4]; 0.0625 kg/ha)	ECHORC herbicidal effect rating ([4]; 0.1250 kg/ha)	ECHORC herbicidal effect rating ([4]; 0.2500 kg/ha)	ABUTH rating ([5]; 0.0313 kg/ha)	ABUTH rating ([5]; 0.0625 kg/ha)	ABUTH rating ([5]; 0.2500 kg/ha)	Herbicidal rating MOOVA ([6]; Rate 0.2500 kg/ha)	further results
C#CCOC(=O)CC1SC(=Nc2cc(-n3c(=O)cc(C(F)(F)F)n(C)c3=O)c(F)cc2Cl)N(C)C1=O (centres unmarked) [Compound 90, 2-Propynyl 2-{{2-chloro-5-[3,6-dihydro-3-methyl-2,6-dioxo-4-(trifluoromethyl)-1(2H)-pyrimidinyl]-4-fluorophenyl}imino}-3-methyl-4-oxo-5-thiazolidineacetate]	4.0	6.0	9.0	9.0	0.0	0.0	2.0	7.0	0.0	0.0	1.0	3.0	0.0	0.0	0.0	3.0	9.0	9.0	9.0	9.0	ABUTH rating ([5]; 0.1250 kg/ha): 9.0; Herbicidal rating MOOVA ([6]; Rate 0.0313 kg/ha): 9.0; Herbicidal rating MOOVA ([6]; Rate 0.0625 kg/ha): 9.0; Herbicidal rating MOOVA ([6]; Rate 0.1250 kg/ha): 9.0
CN1C(=O)C(CC(=O)Nc2ccccc2)SC1=Nc1cc(-n2c(=O)cc(C(F)(F)F)n(C)c2=O)c(F)cc1Cl (centres unmarked) [Compound 91, 2-{{2-Chloro-5-[3,6-dihydro-3-methyl-2,6-dioxo-4-(trifluoromethyl)-1(2H)-pyrimidinyl]-4-fluorophenyl}imino}-3-methyl-4-oxo-5-thiazolidineacetanilide]	0.0	0.0	0.0	0.0	–	–	0.0	0.0	0.0	0.0	0.0	0.0	0.0	0.0	2.0	4.0	–	–	9.0	9.0	ABUTH rating ([5]; 0.1250 kg/ha): 4.0; Herbicidal rating MOOVA ([6]; Rate 0.0313 kg/ha): 9.0; Herbicidal rating MOOVA ([6]; Rate 0.0625 kg/ha): 9.0; Herbicidal rating MOOVA ([6]; Rate 0.1250 kg/ha): 9.0
CN1C(=O)C(CC(=O)NS(=O)(=O)c2ccccc2)SC1=Nc1cc(-n2c(=O)cc(C(F)(F)F)n(C)c2=O)c(F)cc1Cl (centres unmarked) [Compound 102, 2-{{2-Chloro-5-[3,6-dihydro-3-methyl-2,6-dioxo-4-(trifluoromethyl)-1(2H)-pyrimidinyl]-4-fluorophenyl}imino}-3-methyl-4-oxo-N-(phenylsulfonyl)-5-thiazolidineacetamide]	–	–	–	0.0	0.0	0.0	–	0.0	–	–	–	2.0	–	–	–	0.0	0.0	9.0	6.0	0.0	SAGPY herbicidal effect rating ([1]; 0.5000 kg/ha): 0.0; TRZAWR rating ([2]; 0.0156 kg/ha): 0.0; TRZAWR rating ([2]; 0.5000 kg/ha): 1.0; CYPIR herbicidal effect rating ([3]; 0.5000 kg/ha): 6.0; ECHORC herbicidal effect rating ([4]; 0.5000 kg/ha): 2.0; ABUTH rating ([5]; 0.0156 kg/ha): 0.0; ABUTH rating ([5]; 0.5000 kg/ha): 9.0; Herbicidal rating MOOVA ([6]; Rate 0.5000 kg/ha): 4.0
